Test [1] has as its system photoreceptor OS membrane assembly in RPE-deprived retinas. Put plainly: In vitro assay of photoreceptor outer segment (OS) membrane assembly in RPE-deprived Xenopus laevis tadpole retinas. It counts as cell-based. To be noted: for average OS organizational grade (mean±SEM; grade 4 = 100% organization): 5×10^−3 M sugar, three days in culture; for ability to promote OS assembly in the presence of the Müller cell inhibitor: with 1×10^−5 M α-AAA, IPTG at 5×10^−5 M. The source says: We have used various oligosaccharides at concentrations ranging over four orders of magnitude to evaluate the ability of these oligosaccharides to support OS membrane assembly in RPE-deprived retina, using a Xenopus laevis system that allows for convenient analysis of OS membrane formation in vitro. In the RPE-deprived cultures, the RPE continues to be present as a cluster of cells at the ora serrata; however throughout the posterior pole and periphery of the retina, the RPE layer has been removed from its normal position adjacent to the photoreceptors.
Intact retinas were removed from stage 33/34 Xenopus laevis tadpoles and placed into culture in Niu-Twitty medium for three days as described above. Using this paradigm, all OS material is elaborated while in culture. […]

Test [2] deals with putative retinal glycan receptor on Müller cells. As to the kind of experiment: Binding of biotinylated-NA3 to embryonic retinas, anti-biotin immunostaining and confocal microscopy. Further details: species or system Xenopus laevis. Conditions: biotinylated-NA3 alone. The text has this:
Embryonic Xenopus laevis retinas were exposed to two experimental conditions: (1) biotinylated-NA3; and (2) biotinylated-NA3 with a molar excess of IPTG as a competitive sugar, to eliminate non-specific interactions of NA3 with retinal proteins. After exposure to the sugars followed by immunostaining using a mouse anti-biotin primary antibody and a chicken anti-mouse secondary antibody coupled to Alexa fluor 594 using standard protocols, eyes were bisected and viewed using a confocal microscope.
2. Localization of the glycan receptor using biotinylated-NA3 probe. RPE-deprived retinas from stage 33/34 Xenopus laevis tadpoles are exposed to Niu-Twitty medium containing 10^−7 M biotinylated-NA3 for 3 hours, followed by fixation in 4% paraformaldehyde. Control retinas are incubated in NA3+10^−5 M IPTG to reveal non-specific binding of the NA3 ligand. Subsequent procedures are identical to those described above for immunohistochemical localization. In this instance, however, the following primary and secondary antibodies are utilized: anti-biotin, mouse IgG (Molecular Probes) as primary antibody; and anti-mouse chicken IgG labeled with Alexa Fluor 488 (Molecular Probes). To confirm the localization to a particular retinal cell type, sections are co-stained with antisera that are cell type-specific (e.g., directed against Müller cell- or photoreceptor-specific gene products).

In test [3] the test system is photoreceptor OS membrane assembly in RPE-deprived retinas. To be noted: previous studies (60, 61); cited from earlier work.
Test [4] deals with xrds38 isoform of Xenopus peripherin2. Put plainly: Antisense oligonucleotide knockdown in isolated Xenopus laevis eye rudiments. The test is classed as cell-based. To be noted: steady-state level vs retinas with intact RPE. The text has this:
We have developed an assay system using intact isolated Xenopus laevis eye rudiments coupled with antisense oligonucleotides that is well suited to evaluating the functional role of specific gene products, e.g., in OS membrane assembly. As an example of the capability of this assay system, we generated a loss-of-function model for peripherin2, a genetically and phenotypically well-characterized gene (76-82). Photoreceptors of Xenopus laevis express three distinct isoforms of the peripherin2 gene; cones express xrds38 exclusively, whereas rods express […] xrds38 (83). For purposes of validation of the antisense assay system, our evaluation was directed to xrds38. Phosphorothioated oligonucleotides (two 20-base antisense oligonucleotides and one 20-base sense oligonucleotide) derived from the 5' end of the coding sequences of the xrds38 isoform of Xenopus peripherin2 were utilized. Additional controls included: retinas with an intact RPE, and retinas devoid of RPE with 5 mM exogenous lactose added to the medium. […] The percentage of retinal cells that had positive uptake of the FITC-conjugated oligonucleotide was determined by comparing the volume of bright to dark areas in optical sections obtained with the confocal microscope. […] The steady-state levels of each protein were compared to the levels detected in control retinas maintained with an intact RPE cell layer.

The subject of the next test is Müller cells. Conditions: 1×10^−5 M, RPE-supported retinas; cited from earlier work.

“Also recorded” adds a separate entry of the source.

“asialo, galactosylated, triantennary (NA3) oligosaccharide”: the “support of OS assembly in the absence of RPE” value (from here on “support of OS assembly”) in test [1] (5×10^−10M) is “robust support of OS assembly”. In test [1] (RPE-deprived retinas), the “concentration that optimally supports OS assembly (maximum effect)” value was 0.0005 µM. For the same molecule, the binding to photoreceptors result in test [2] is reported as “did not bind to any portion of photoreceptors”.
On to `O=C[C@@H](O)[C@@H](O)[C@H](O)[C@H](O)CO` [mannose], for which the “support of OS assembly” value in test [1] (5×10^−3 M (5 mM)) is on record as “does not favorably affect the folding of OS; also recorded: fails to support the proper assembly of OS”. Further, the “average OS organizational grade (mean±SEM; grade 4 = 100% organization)” value in test [1] (RPE-deprived retinas) is 0.52±0.22. In addition, in test [3], the “ability to let OS organize in the absence of the RPE (permissive / non-permissive sugars)” value (shortened to “ability … (permissive / non-permissive sugars)”) is given as “fail to exert any organizational effect”.
As for `C[C@H](O)[C@@H](O)[C@@H](O)[C@H](O)C=O` [fucose], the “ability … (permissive / non-permissive sugars)” value in test [3] is reported as “fail to exert any organizational effect”.
On to “asialo, galactosylated, biantennary (NA2) oligosaccharide”, for which the “concentration that optimally supports OS assembly (maximum effect)” value in test [1] (RPE-deprived retinas) was 0.005 µM.
`O=C[C@H](O)[C@@H](O)[C@@H](O)[C@H](O)CO` [galactose]: the “ability … (permissive / non-permissive sugars)” value in test [3] is given as “permit OS to organize”.
With `CC(C)S[C@@H]1O[C@H](CO)[C@H](O)[C@H](O)[C@H]1O` [IPTG, isopropyl beta-D-thiogalactopyranoside], the “average grade of OS membranes assembled during exposure to the sugar (early part)” value in test [1] (5×10^−5 M IPTG with 3H-leucine for two days) is given as “about 2.88±0.37”. For the same molecule, in test [1] (RPE-deprived retinas), the “concentration that optimally supports OS assembly (maximum effect)” value turned out to be 50 µM, the “fold lower concentration than lactose for comparable effect on OS assembly” value turned out to be 100 fold and the “ability to promote OS assembly in the presence of the Müller cell inhibitor” value is recorded as “severely diminished”. The “average OS grade at maximum response” value in test [1] (RPE-deprived retinas, 5×10^−5 M IPTG) is given as 2.61±0.37. In test [1] (two further days in non-supplemented medium after IPTG), the “average grade of OS membranes assembled after removal of the sugar (later stage)” value is given as 1.21±0.31.
With `OC[C@H]1O[C@@H](O[C@H]2[C@H](O)[C@@H](O)C(O)O[C@@H]2CO)[C@H](O)[C@@H](O)[C@H]1O` (some centres unmarked) [lactose], in test [4], the “opsin protein level relative to control” value was “not significantly different from controls” and the “peripherin2 protein level relative to control” value was “slightly elevated above control”. Further, the “support of OS assembly” value in test [1] (5×10^−3 M (5 mM)) is on record as “supports the proper formation of nascent OS; also recorded: OS assembly is supported”. Moreover, in test [1] (RPE-deprived retinas), the “concentration that optimally supports OS assembly (maximum effect)” value worked out at 5000 µM and the “average OS organizational grade (mean±SEM; grade 4 = 100% organization)” value stood at 2.50±0.28. In addition, in test [1] (RPE-deprived retinas, 5×10^−3 M), the “share of OS membranes highly organized” value is reported as 50 to 75%. For the same molecule, in test [3], the “ability … (permissive / non-permissive sugars)” value was “permit OS to organize”.
As to `NC(CCCC(=O)O)C(=O)O` (stereo not drawn) [α-AAA, Alpha-aminoadipic acid], in the test with Müller cells, the “effect on Müller cell morphology and protein expression patterns” value is “selective alterations”; the “effect on ability of photoreceptors to synthesize opsin” value is on record as “no affect”; the “effect on assembly of nascent OS membranes” value is on record as “interfere with the ability of these cells to properly assembly nascent OS membranes”.

B1: PEDF: pigment epithelium derived factor, RPE-secreted protein (protein, UniProt P36955 20-418, looked up)
Pigment epithelium-derived …: QNPASPPEEGSPDPDSTGALVEEEDPFFKVPVNKLAAAVSNFGYDLYRVRSSTSPTTNVLLSPLSVATALSALSLGAEQRTESIIHRALYYDLISSPDIHGTYKELLDTVTAPQKNLKSASRIVFEKKLRIKSSFVAPLEKSYGTRPRVLTGNPRLDLQEINNWVQAQMKGKLARSTKEIPDEISILLLGVAHFKGQWVTKFDSRKTSLEDFYLDEERTVRVPMMSDPKAVLRYGLDSDLSCKIAQLPLTGSMSIIFFLPLKVTQNLTLIEESLTSEFIHDIDRELKTVQAVLTVPKLKLSYEGEVTKSLQEMKLQSLFDSPDFSKITGKPIKLTQVEHRAGFEWNEDGAGTTPSPGLQPAHLTFPLDYHLNQPFIFVLRDTDTGALLFIGKILDPRGP
B1: in test [1] (RPE-deprived retinas), the “ability to promote OS assembly in the presence of the Müller cell inhibitor” value is given as “able to support proper membrane folding”.

These data come from US8092825B2, “Glycan binding proteins as therapeutic targets for retinal disorders and treatment methods based thereon” (The University of Tennessee Research Foundation, priority 2007, dated 2012).
